Measurements as given in patent publication US11999676B2, “Vesicular monoamine transporter-2 ligands and their use in the treatment of psychostimulant abuse” (priority 2016, dated 2024).
Read-outs that look alike come from different tables or passages of the source.

Experiments:
VMAT2 [1] = target: T1, VMAT2 (Rattus norvegicus (Rat), UniProt Q01827); conditions: rat brain synaptic vesicles; read-out: [3H]DTBZ binding (Ki) VMAT2
VMAT2 [2] = target: T1, VMAT2; experiment: [3H]Dopamine ([3H]DA) uptake assay, vesicular preparation; format: biochemical
hERG channel = hERG channel (Homo sapiens (Human), UniProt Q12809); experiment: [3H]Dofetilide binding assay, HEK-293 cell membrane preparation; conditions: [3H]dofetilide, HEK-293 cell membranes; read-out: hERG Binding: Mean Ki ± Standard Deviation
hERG channel, sequence (Q12809 whole entry): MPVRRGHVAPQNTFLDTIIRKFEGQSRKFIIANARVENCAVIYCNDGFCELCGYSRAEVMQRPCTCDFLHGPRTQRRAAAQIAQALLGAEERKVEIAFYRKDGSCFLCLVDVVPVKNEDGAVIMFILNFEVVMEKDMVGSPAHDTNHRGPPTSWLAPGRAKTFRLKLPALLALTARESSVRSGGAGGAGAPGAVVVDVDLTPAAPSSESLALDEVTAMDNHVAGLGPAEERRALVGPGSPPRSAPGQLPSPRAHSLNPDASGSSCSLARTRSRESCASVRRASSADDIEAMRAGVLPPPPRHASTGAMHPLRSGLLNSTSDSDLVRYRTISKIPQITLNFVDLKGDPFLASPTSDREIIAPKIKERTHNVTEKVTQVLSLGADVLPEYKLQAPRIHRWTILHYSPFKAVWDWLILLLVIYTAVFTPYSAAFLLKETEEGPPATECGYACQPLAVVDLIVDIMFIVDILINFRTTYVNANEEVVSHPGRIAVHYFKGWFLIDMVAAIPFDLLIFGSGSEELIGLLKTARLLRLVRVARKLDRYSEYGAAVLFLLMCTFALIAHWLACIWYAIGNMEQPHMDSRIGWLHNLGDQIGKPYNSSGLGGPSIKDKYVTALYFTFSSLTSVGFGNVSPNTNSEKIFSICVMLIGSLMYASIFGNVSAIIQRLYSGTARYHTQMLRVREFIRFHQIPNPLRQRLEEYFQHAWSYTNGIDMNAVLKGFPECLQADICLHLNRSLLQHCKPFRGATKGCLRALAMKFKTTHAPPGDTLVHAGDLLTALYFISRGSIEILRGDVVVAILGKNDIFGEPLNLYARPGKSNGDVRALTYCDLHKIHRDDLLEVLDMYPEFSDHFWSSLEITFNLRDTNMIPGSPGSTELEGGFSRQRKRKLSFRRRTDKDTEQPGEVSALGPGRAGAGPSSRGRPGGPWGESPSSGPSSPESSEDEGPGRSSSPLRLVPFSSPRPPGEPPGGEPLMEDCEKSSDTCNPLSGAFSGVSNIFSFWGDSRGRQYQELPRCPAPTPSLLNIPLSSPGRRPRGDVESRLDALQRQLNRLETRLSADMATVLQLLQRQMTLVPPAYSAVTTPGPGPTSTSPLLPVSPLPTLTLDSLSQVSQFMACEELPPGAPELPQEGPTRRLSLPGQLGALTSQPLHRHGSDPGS
Description: [^3H]Dofetilide binding assays were conducted using commercially available HEK-293 cell membranes which stably express the hERG channel. Membranes were suspended in assay buffer (50 mM Tris, 10 mM KCl, 1 mM MgCl2, pH 7.4) prior to the experiment. […] Aliquots of the HEK-293 cell membrane suspension which contained 5 μg membrane protein were added to tubes containing assay buffer, 5 nM [^3H]dofetilide and a range of concentrations of analog (10 nM-100 μM). Nonspecific binding was determined in the presence of amitriptyline (1 mM). Samples were incubated for 1 hr. at 24° C., followed by rapid filtration. […] The affinity for the [^3H]dofetilide binding site on the hERG channel expressed in the HEK-293 cellular membrane was determined from the analog concentration response curves.

[3] = Microsomal stability assay, human liver microsomes; conditions: for CLint scaled at 0.08 µM / half-life at 0.08 µM: both, human, pooled liver microsomes; for CLint scaled at 0.08 µM: pH 7.4, Microsomal stability assays: Clearance; for half-life at 0.08 µM: pH 7.4, Microsomal stability assays: Half-life
Description: Each plate holds triplicate samples of two controls (0.4 mM) and up to 14 compounds (0.08 mM) in rat and human liver microsomes. Aliquots of each well of the plate (175 μl of each well) were transferred from the master plate into 5 assay plates. For 0-hr time point, pre-cooled (4° C.) internal standard (437.5 μL, 2 μM caffeine in methanol) was added to the first plate before the reaction starts. NADPH regenerating system solution A (6.05 ml, Fisher Scientific, #NC9255727) was combined with NADPH regenerating system solution B (1.21 ml, Fisher Scientific, #NC9016235) in potassium phosphate buffer (15.8 ml, 0.1 M, pH 7.4, 37° C.). The resulting NADPH solution (43.8 μl) was added to each well of all the 96-well assay plates and mixed with pipette briefly making the final protein and compound concentrations respectively: 0.5 mg/ml, 0.08 μM (0.4 μM for controls). Plates were sealed, and all plates except the 0-hr plate were incubated at 37° C., shaken at a speed of 60 rpm. A single assay plate was tested at each time point: 0.5 hr, 1 hr, 2 hr, and 4 hr. At each time point, 437.5 μL of pre-cooled internal standard was added each well of the plate to quench the reaction. […] 120 μl supernatant was transferred to a 96-well plate, centrifuged again and analyzed by UPLC-MS (Waters Inc., Milford, MA). The compounds and internal standard were detected by selected ion recording (SIR).
The amount of material was measured as a ratio of peak area to the internal standard and graphed. Using the slope from the initial linear portion of this curve, the degradation rate constant is calculated using equation [1].

[4] = rat striatal synaptic vesicles, read-out: [3H]DA uptake (Ki) VMAT2
[5] = [3H]DA uptake, rat, read-out: VMAT2 (rat) Inhibition: Mean Ki ± Standard Deviation

| Structure (SMILES) | Ki (VMAT2 [1]) [nM] | Ki (VMAT2 [2]; [4]) [nM] | further results |
| --- | --- | --- | --- |
| CC(Cc1ccccc1)NCCCCc1ccccc1 (stereo not drawn) [Compound 15] | 190 ± 20 | 3 ± 2 | – |
| COc1ccc(CC(C)NCCCc2ccccc2)cc1 (stereo not drawn) [Compound 26] | 1270 ± 90 | 22 ± 3 | – |
| COc1ccc(CCCNC(C)Cc2ccc(F)cc2)cc1 (stereo not drawn) [Compound 40] | 1700 ± 400 | 17 ± 3 | – |
| CC(CCc1ccccc1)N(C)CCc1ccccc1 (stereo not drawn) [Compound 49] | 29800 ± 11200 | 84 ± 4 | – |
| C[C@H](Cc1ccccc1)NCCCc1ccccc1 [Compound 5] | 910 ± 590 | 6 ± 1 | – |
| CC(Cc1ccccc1)NCCc1ccc(O)c(O)c1 (stereo not drawn) [Compound 23] | 3400 ± 600 | 92 ± 17 | – |
| COc1ccc(CC(C)N(C)CCCc2ccccc2)cc1 (stereo not drawn) [Compound 30] | 7110 ± 820 | 270 ± 38 | – |
| COc1ccc(CCCNC(C)Cc2ccccc2)cc1 (stereo not drawn) [Compound 8] | 2200 ± 110 | 14 ± 3 | – |
| CC(Cc1ccc(F)cc1)NCCCc1ccccc1 (stereo not drawn) [Compound 39] | 1300 ± 300 | 10 ± 0.2 | – |
| COc1ccc(CC(C)NCCCCc2ccccc2)cc1OC (stereo not drawn) [Compound 47] | 1100 ± 100 | 29 ± 11 | – |
| CC(Cc1ccc([N+](=O)[O-])cc1)NCCCc1ccc(F)cc1 (stereo not drawn) [Compound 120] | – | – | Ki (VMAT2 [2]; [5]): 9.85 ± 1.62 nM; Ki (hERG channel): 130 ± 25.6 nM; Microsomal stability assays: Clearance [3]: <5.20 mL/min/kg; Microsomal stability assays: Half-life [3]: >4 h |
| CC(Cc1ccccc1)N(C)CCc1ccccc1 (stereo not drawn) [Compound 2] | 7530 ± 2160 | 510 ± 100 | – |
| CC(Cc1ccc(F)cc1)NCCCc1ccc(-c2ccnn2C)cc1 (stereo not drawn) [Compound 166] | – | – | Ki (VMAT2 [2]; [5]): 46.5 ± 8.97 nM; Ki (hERG channel): 2200 ± 251 nM; CLint scaled at 0.08 µM [3]: 34.3 mL/min/kg; half-life at 0.08 µM [3]: 0.6 h |
| CC(Cc1ccc([N+](=O)[O-])cc1)NCCCc1ccc(Br)cc1 (stereo not drawn) [Compound 121] | – | – | Ki (VMAT2 [2]; [5]): 13.4 ± 4.8 nM; Ki (hERG channel): 80 ± 67.7 nM; CLint scaled at 0.08 µM [3]: < 5.2 mL/min/kg; half-life at 0.08 µM [3]: > 4 h |
| CC(Cc1ccc([N+](=O)[O-])cc1)NCCCc1ccc(F)cc1 (stereo not drawn) [Compound 118] | – | – | Ki (VMAT2 [2]; [5]): 7.08 ± 1.29 nM; Ki (hERG channel): 206 ± 137 nM; CLint scaled at 0.08 µM [3]: < 5.2 mL/min/kg; half-life at 0.08 µM [3]: > 4 h |
| CC(Cc1ccc(Br)cc1)NCCc1ccccc1 (stereo not drawn) [Compound 3] | 1230 ± 130 | 33 ± 7 | – |
| COc1ccc(CCNC(C)CCc2ccc(OC)cc2)cc1 (stereo not drawn) [Compound 33] | 1500 ± 200 | 60 ± 7 | – |

| Structure (SMILES) | Ki (VMAT2 [1]) [nM] | Ki (VMAT2 [2]; [4]) [nM] | further results |
| --- | --- | --- | --- |
| CC(Cc1ccc(N)cc1)NCCc1ccccc1 (stereo not drawn) [Compound 44] | 17000 | 210 ± 80 | – |
| COc1ccc(CCCNC(C)CCc2ccc(OC)cc2)cc1 (stereo not drawn) [Compound 53] | 1500 ± 700 | 24 ± 6 | – |
| CC(Cc1ccc(F)cc1)NCCCc1ccc(Br)cc1 (stereo not drawn) [Compound 146] | – | – | Ki (VMAT2 [2]; [5]): 22.1 ± 6.5 nM; Ki (hERG channel): 546 ± 199 nM; CLint scaled at 0.08 µM [3]: < 5.2 mL/min/kg; half-life at 0.08 µM [3]: > 4 h |
| CC(Cc1ccc(Br)cc1)NCCCCc1ccccc1 (stereo not drawn) [Compound 14] | 81 ± 16 | 3 ± 0.3 | – |
| CC(Cc1ccccc1)NCCc1ccc(O)cc1 (stereo not drawn) [Compound 21] | 1500 ± 200 | 120 ± 10 | – |
| CC(CCc1ccccc1)NCCCc1ccccc1 (stereo not drawn) [Compound 50] | 4810 ± 1130 | 50 ± 12 | – |
| CC(Cc1ccc(NC=O)cc1)NCCCc1ccccc1 (stereo not drawn) [Compound 77] | – | – | Ki (VMAT2 [2]; [5]): 21 ± 1.1 nM; Ki (hERG channel): 1760 ± 630 nM; CLint scaled at 0.08 µM [3]: 11.2 mL/min/kg; half-life at 0.08 µM [3]: 1.9 h |
| CC(Cc1ccc(O)cc1)NCCc1ccccc1 (stereo not drawn) [Compound 35] | 2600 ± 400 | 47 ± 6 | – |
| CC(Cc1ccccc1)NCCc1ccccc1 (stereo not drawn) [Compound 1] | 7700 ± 1250 | 63 ± 5 | – |
| CC(Cc1ccc(F)cc1)NCCCc1ccccc1 (stereo not drawn) [Compound 126] | – | – | Ki (VMAT2 [2]; [5]): 19.3 ± 5.14 nM; Ki (hERG channel): 2050 ± 773 nM; CLint scaled at 0.08 µM [3]: 11.5 mL/min/kg; half-life at 0.08 µM [3]: 1.8 h |
| CC(Cc1ccc([N+](=O)[O-])cc1)NCCCc1ccccc1 (stereo not drawn) [Compound 42] | 2000 ± 300 | 13 ± 4 | – |
| COc1ccc(CCC(C)NCCc2ccc(Br)cc2)cc1 (stereo not drawn) [Compound 34] | 870 ± 30 | 10 ± 4 | – |
| CC(Cc1ccc([N+](=O)[O-])cc1)NCCCc1ccccc1 (stereo not drawn) [Compound 115] | – | – | Ki (VMAT2 [2]; [5]): 19 ± 3.81 nM; Ki (hERG channel): 285 ± 78.8 nM; CLint scaled at 0.08 µM [3]: < 5.2 mL/min/kg; half-life at 0.08 µM [3]: > 4 h |
| CC(Cc1ccccc1)NCCCCCc1ccccc1 (stereo not drawn) [Compound 17] | 630 | 14 ± 1 | – |
| COc1ccc(CC(C)N(C)CCc2ccccc2)cc1 (stereo not drawn) [Compound 25] | 11900 ± 1840 | 460 ± 75 | – |
| CC(Cc1ccncc1)NCCCc1ccc(Br)cc1 (stereo not drawn) [Compound 168] | – | – | Ki (VMAT2 [2]; [5]): 41 ± 11.1 nM; Ki (hERG channel): 1780 ± 468 nM; CLint scaled at 0.08 µM [3]: 6 mL/min/kg; half-life at 0.08 µM [3]: 3.5 h |
